In PubChem BioAssay (NCI):
Values joined by “and” are separate entries in the source; they are usually repeats but may differ in a detail not shown here. Equal values may be shown once.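 Exposure lasted 48 hours, with cells grown in 96-well plates and compounds tested at five concentrations. GI50 marks 50% less growth. TGI is the concentration that stops growth completely.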

Assays:
Test in all cases: growth of human tumour cells (NCI), 48 h
HOP-92 NSCLC = system: HOP-92 NSCLC
M14 melanoma = system: M14 melanoma
MCF7 breast = system: MCF7 breast
MDA-MB-231 breast = system: MDA-MB-231 breast
NCI-H226 lung = system: NCI-H226 lung
OVCAR-5 ovarian = system: OVCAR-5 ovarian
RPMI-8226 leukemia = system: RPMI-8226 leukemia
SK-OV-3 ovarian = system: SK-OV-3 ovarian
SNB-75 CNS = system: SNB-75 CNS
EKVX NSCLC = system: EKVX NSCLC

SMILES | GI50 (HOP-92 NSCLC) [µM] | TGI (HOP-92 NSCLC) [µM] | GI50 (M14 melanoma) [µM] | TGI (M14 melanoma) | GI50 (MCF7 breast) [µM] | TGI (MCF7 breast) | GI50 (MDA-MB-231 breast) | TGI (MDA-MB-231 breast) | GI50 (NCI-H226 lung) [µM] | TGI (NCI-H226 lung) | GI50 (OVCAR-5 ovarian) | TGI (OVCAR-5 ovarian) | GI50 (RPMI-8226 leukemia) [µM] | TGI (RPMI-8226 leukemia) | GI50 (SK-OV-3 ovarian) [µM] | TGI (SK-OV-3 ovarian) | GI50 (SNB-75 CNS) [µM] | TGI (SNB-75 CNS) | GI50 (EKVX NSCLC) [µM] | TGI (EKVX NSCLC) [µM]
Cc1[nH]nc2c1N=C(c1ccccc1F)c1cc(C(N)=O)ccc1N2 | 7.12 | > 25 | 7.86 | > 25 µM | 0.592 | > 20 µM | 6.8 µM | > 25 µM | 0.852 | 6.38 µM | 9.61 µM | > 22.3 µM | > 25 | > 25 µM | 6.43 | > 25 µM | 0.0838 | 1.69 µM | – | –
C/C=C/[C@H]1O[C@@H]2C(=C[C@H]1O)C(=O)O[C@H]2C | 1.55 | 22.1 | 14.7 | 30.6 µM | 31.2 | 98 µM | 17.3 µM | 34.2 µM | 18.4 | 48.1 µM | 23.2 µM | 45.8 µM | 2.74 | 8.85 µM | > 50.2 | > 66.7 µM | 1.23 | 26.4 µM | 13.4 | 30.8
CC(C)n1nc(-c2ccc3oc(N)nc3c2)c2c(N)ncnc21 | < 0.01 | < 0.01 | < 0.01 | 0.522 µM and 0.678 µM | < 0.01 | 2.87 µM and 4.12 µM | 0.0165 µM and 0.0211 µM | 1.97 µM and 1.7 µM | < 0.01 | 0.371 µM and 0.231 µM | 0.0132 µM and 0.0161 µM | 1.4 µM and 2.08 µM | < 0.01 | 1.1 µM and 3.68 µM | < 0.01 | 0.049 µM and 0.0548 µM | < 0.01 | 0.0532 µM and 0.0211 µM | 0.0159 | 0.225
NCCOc1ccccc1/C=C1\c2ccccc2-c2ccc([N+](=O)[O-])cc21 | 1.33 | 2.75 | 1.65 | 3.02 µM | 0.805 | 2.25 µM | 1.58 µM | 2.99 µM | 1.73 | 3.48 µM | 1.61 µM | 3.06 µM | 1.79 | 3.63 µM | 1.7 | 3.13 µM | 1.28 | 2.55 µM | 1.55 | 2.99
O=[n+]1c2ccccc2n([O-])c2cc(Cl)ccc21 | 2.14 | 8.29 | 10.7 | 29.9 µM | 3.72 | 16.1 µM | 4.21 µM | 22.2 µM | 7.32 | 25.6 µM | 15.7 µM | 33.5 µM | 2.45 | 5.98 µM | 7.12 | 20.4 µM | 3.18 | 15 µM | – | –
CCCCNC(=O)c1cc(NCc2cc(O)ccc2O)ccc1O | 6.81 | 21.7 | 19.2 | 43.7 µM | 12.4 | 39.8 µM | 7.41 µM | 21.7 µM | – | – | 17.4 µM | 32 µM | 1.76 | 7.85 µM | 67.5 | > 100 µM | 18.5 | > 100 µM | 13.4 | 28.1
CCCNC(=O)c1ccc(Cl)cc1Cl | > 100 | > 100 | > 100 | > 100 µM | > 100 | > 100 µM | > 100 µM | > 100 µM | > 100 | > 100 µM | > 100 µM | > 100 µM | – | – | > 100 | > 100 µM | > 100 | > 100 µM | > 100 | > 100
C[C@]1(Cn2ccnn2)C(C(=O)O)N2C(=O)CC2S1(=O)=O (some centres not stated) | > 100 | > 100 | > 100 | > 100 µM | > 100 | > 100 µM | > 100 µM | > 100 µM | > 100 | > 100 µM | > 100 µM | > 100 µM | > 100 | > 100 µM | > 100 | > 100 µM | > 100 | > 100 µM | – | –
COc1ccc2c(Cl)cc(NC(=O)Nc3c(C)cccc3C)nc2c1 | 4.26 | 27.4 | 31.8 | > 100 µM | 56 | > 100 µM | 13.3 µM | > 100 µM | 2.29 | 6.14 µM | > 100 µM | > 100 µM | > 100 | > 100 µM | 4.37 | 83 µM | 1.47 | 6.01 µM | – | –
CC(/C=C/c1ccccc1)=N\NC(N)=S | – | > 100 | – | 88.4 µM | – | > 100 µM | – | > 100 µM | – | > 100 µM | – | > 100 µM | – | 93.5 µM | – | > 100 µM | – | – | – | > 100
